Results published in article PMC3738572, “Improved Bone Morphogenetic Protein-2 Retention in an Injectable Collagen Matrix Using Bifunctional Peptides” (PLoS ONE, 2013).
Like-named read-outs stand apart in the source and are kept apart here. Residues, ends and D or L forms follow the SMILES beside them. *: point of attachment. Biotin = O=C1N[C@H]2[C@H](CS[C@H]2CCCCC(=O)*)N1

Experiments:
[1] = biological target: T1, rhBMP-2 (Homo sapiens, UniProt P12643); test: BMP-2 peptide binding assay (biotinylated peptide immobilized on streptavidin plate, rhBMP-2 titrated)
T1 construct: purchased R&D Systems 355-BM/CF
T1 sequence (P12643 283-396): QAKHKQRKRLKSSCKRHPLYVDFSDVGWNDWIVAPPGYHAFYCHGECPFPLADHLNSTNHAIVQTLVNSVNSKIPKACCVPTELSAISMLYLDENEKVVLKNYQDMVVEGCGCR
Description: To measure the ability of a BMP-binding peptide to capture its target growth factor out of buffer or a complex biological solution such as plasma, biotinylated peptides were immobilized onto a streptavidin-coated 96 well plate. Varying low nanomolar concentrations of BMP-2 were “spiked” into human plasma or Tris-buffered saline (0.5 M NaCl), 0.05% Tween-20 (TBST) and added to the peptide-containing plates. […] Adding p-NPP produced a colored reactant, which was quantified using a SpectroMax (Molecular Devices) plate reader at 405 nm.

[2] = biological target: T2, rhBMP-7 (Homo sapiens, UniProt P18075); test: Peptide cross-reactivity to other growth factors; type: binding; conditions: Figure 5; growth factor titrated in TBST for 1 h on immobilized peptide; antibody and p-NPP detection; read-out: EC50, BMP-7
T2 sequence (P18075 293-431): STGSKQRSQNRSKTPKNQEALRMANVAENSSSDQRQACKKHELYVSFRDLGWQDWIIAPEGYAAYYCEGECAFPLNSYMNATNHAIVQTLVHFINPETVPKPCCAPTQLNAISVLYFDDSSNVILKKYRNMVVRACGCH
Procedure: (§1) To measure the ability of a BMP-binding peptide to capture its target growth factor out of buffer or a complex biological solution such as plasma, biotinylated peptides were immobilized onto a streptavidin-coated 96 well plate. Varying low nanomolar concentrations of BMP-2 were “spiked” into human plasma or Tris-buffered saline (0.5 M NaCl), 0.05% Tween-20 (TBST) and added to the peptide-containing plates. After 1 hr incubation at room temperature (RT), plates were washed and incubated with an anti-BMP-2 antibody followed by a goat anti-mouse secondary antibody conjugated to alkaline phosphatase. Adding p-NPP produced a colored reactant, which was quantified using a SpectroMax (Molecular Devices) plate reader at 405 nm.
(§2) Figure 5 Peptide cross-reactivity to other growth factors. Peptides B-17 (A) and B-18 (B) were immobilized on a streptavidin-coated plate, and a range of concentrations of growth factors in the TGF-β superfamily were titrated onto the plate in TBST for 1 h. Growth factor binding was analyzed using antibody and p-NPP detection. […] Peptide B-17 also cross-reacted with rhBMP-3, rhBMP-5, and rhBMP-12. The peptides had lower affinities for all other growth factors tested. Data are presented as the absorbance read at 405 nm.

[3] = biological target: T3, rhBMP-6 (Homo sapiens, UniProt P22004); test: Peptide cross-reactivity to other growth factors; type: binding; conditions: Figure 5; growth factor titrated in TBST for 1 h on immobilized peptide; antibody and p-NPP detection; read-out: EC50, BMP-6
T3 sequence (P22004 375-513): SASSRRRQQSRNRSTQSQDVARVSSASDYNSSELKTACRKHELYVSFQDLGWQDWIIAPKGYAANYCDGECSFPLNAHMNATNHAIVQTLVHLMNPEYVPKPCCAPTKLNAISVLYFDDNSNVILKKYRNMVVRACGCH
Procedure: as §1, §2

[4] = test system: ectopic bone formation; test: In vivo ectopic bone formation study; design: species or system rat
Procedure: Male Sprague Dawley rats (150–175 g) were obtained from […], Charles River Laboratories (Raleigh, NC) and acclimated prior to surgery. The surgery was performed under general anesthesia by weight-adapted intraperitoneal injection of Xylazine 2% (Medistar; 12 mg/kg body weight) and Ketamine hydrochloride (Ketaset; 100 mg/mL; 80 mg/kg body weight). The thorax and abdomen were shaved and scrubbed with Betadine and alcohol. Using aseptic technique, two 5 mm incisions were made at the midline so that two subcutaneous pouches were prepared by blunt dissection. […] Each rat received two injections and a total of 20 animals were used in the study. […] In those experiments, rats were implanted with collagen gel containing either 1 or 5 μg of BMP-2.
The sites containing the injected material were explanted at two weeks and fixed in 10% neutral buffered formalin. The samples were placed in Formical 2000 decalcifier (American Mastertech) for 24 hours followed by Cal-arrest neutralizing solution for one hour. The tissue samples were processed in a Thermo-Electron, Shandon Excelsior Automated Tissue Processor for 14 hours. The process includes additional fixation in 10% buffered neutral formalin, dehydration through an ethanol gradient, and clearing with xylene at 40°C. Tissue was then embedded on a Leica EF 1140 H tissue embedding center in paraffin blocks for sectioning. Paraffin blocks were sectioned at 5 microns on a Reichert-Jung RM2065 microtome using Accu-Edge High Profile disposable stainless steel microtome blades. Three serial sections at intervals of 30 microns were obtained and placed on Super-frost Plus slides for hematoxylin and eosin staining (H&E). Staining was performed using a Sakura DRS-601 automatic slide stainer with a regressive Harris hematoxylin and Eosin Y Alcoholic for histological and morphological examination.
Histological sections were scored based on three criteria: Bone Cross-Sectional Area, Bone Maturity and Cellular Activity. Each segment was scored based on a 0–4 point scale by two observers (blinded to the study) who evaluated the entire implant under 10× magnification.

[5] = biological target: T4, rhBMP-2 binding to injectable collagen gel (Homo sapiens, UniProt P12643); test: Injectable collagen gel binding assay; conditions: tested for the ability to bind BMP-2 to a collagen gel
T4 construct: purchased R&D Systems 355-BM/CF
T4 sequence (P12643 283-396): T1 sequence (P12643 283-396)
Procedure: The injectable collagen gel (0.1 mL) was aliquoted into a polypropylene plate. The plate was blocked with 150 µl of 1% BSA in TBS for 30 min. After spinning for 2 min, the supernatant was removed without disrupting the collagen gel. […] The wells were then washed, and an alkaline phosphatase labeled goat anti-mouse secondary antibody was added. After incubation and washing, binding was measured using the chromogenic reagent p-NPP, and absorbance was read at 405 nm.

[6] = read-out: EC50 of BMP-2 binding to immobilized peptide
[7] = Figure 5, growth factor titrated in TBST for 1 h on immobilized peptide, antibody and p-NPP detection, read-out: EC50, BMP-2 (cross-reactivity experiment)
[8] = group median, 2 μg rhBMP-2 with 50-fold molar excess of peptide in collagen gel, rat, 2 weeks, p<.0001 vs no peptide

CC(C)C[C@H](NC(=O)[C@H](C)NC(=O)[C@H](CO)NC(=O)[C@H](Cc1ccccc1)NC(=O)[C@H](CO)NC(=O)[C@H](CO)NC(=O)[C@H](Cc1ccccc1)NC(=O)[C@H](C)NC(=O)[C@H](CO)NC(=O)[C@H](CC(=O)O)NC(=O)[C@H](CO)NC(=O)[C@@H](N)CO)C(=O)N[C@@H](CCC(=O)O)C(=O)NCC(=O)N[C@@H](CO)C(=O)N[C@H](C(=O)N[C@H](C(=O)O)C(C)C)C(C)C [Peptide B-6] (H-SSDSAFSSFSALEGSVV-OH)
EC50 [1]: 1.4 nM

CC(C)C[C@H](NC(=O)[C@H](CC(=O)O)NC(=O)[C@@H](NC(=O)[C@@H](N)CO)C(C)C)C(=O)N[C@@H](Cc1ccc(O)cc1)C(=O)N[C@@H](Cc1ccccc1)C(=O)N1CCC[C@H]1C(=O)N[C@@H](CC(C)C)C(=O)N[C@@H](CCCCN)C(=O)NCC(=O)N[C@@H](CC(=O)O)C(=O)N[C@H](C(=O)N[C@H](C(=O)O)C(C)C)C(C)C [Peptide B-12] (H-SVDLYFPLKGDVV-OH)
EC50 [1, 6]: 12 nM

CC(C)C[C@H](NC(=O)[C@H](CO)NC(=O)[C@H](CO)NC(=O)[C@H](Cc1ccccc1)NC(=O)[C@H](C)NC(=O)[C@H](CO)NC(=O)[C@H](Cc1ccccc1)NC(=O)[C@H](CO)NC(=O)CNC(=O)CNC(=O)[C@@H](N)CC(=O)O)C(=O)N[C@H](C(=O)N[C@@H](Cc1c[nH]c2ccccc12)C(=O)N[C@@H](C)C(=O)N[C@@H](C)C(=O)N[C@@H](CC(=O)O)C(=O)N[C@@H](CO)C(=O)O)C(C)C [Peptide B-10] (H-DGGSFSAFSSLVWAADS-OH)
EC50 [1, 6]: 26 nM

CC(C)C[C@H](NC(=O)[C@H](C)NC(=O)CNC(=O)CN)C(=O)NCC(=O)N[C@@H](Cc1ccccc1)C(=O)N1CCC[C@H]1C(=O)N[C@@H](CC(C)C)C(=O)N[C@@H](CCCCN)C(=O)NCC(=O)N[C@@H](CCC(=O)O)C(=O)N[C@H](C(=O)N[C@H](C(=O)N[C@@H](CCC(=O)O)C(=O)NCC(=O)N[C@@H](Cc1c[nH]c2ccccc12)C(=O)N[C@@H](C)C(=O)NCC(=O)N[C@@H](CO)C(=O)N[C@@H](CO)C(=O)NCC(=O)N[C@@H](CCCCNC(=O)CCCC[C@@H]1SC[C@@H]2NC(=O)N[C@@H]21)C(=O)O)C(C)C)C(C)C [Peptide B-18] (H-GGALGFPLKGEVVEGWAGSSGK(Biotin)-OH)
EC50 [2]: 16.2 nM
EC50 [3]: 6.5 nM
EC50 [1, 7]: 2.8 nM
EC50 [1, 6]: 1.9 nM

CC(C)C[C@H](NC(=O)[C@@H]1CCCN1C(=O)[C@H](Cc1ccccc1)NC(=O)[C@H](CCCNC(=N)N)NC(=O)[C@H](CC(C)C)NC(=O)[C@@H]1CCCN1C(=O)[C@H](CCC(=O)O)NC(=O)[C@@H](N)Cc1ccccc1)C(=O)N[C@@H](CCCCN)C(=O)NCC(=O)N[C@H](C(=O)N1CCC[C@H]1C(=O)N[C@H](C(=O)O)C(C)C)C(C)C [Peptide B-9] (H-FEPLRFPLKGVPV-OH)
EC50 [1, 6]: 5.7 nM

SWWGFWNGSAAPVWSR-GSSG-AGAWEAFSSLSGSRV-GSSGK(Biotin) [BC-1]
Median histology score: Bone area [4, 8]: 2.1 (26–35% of Implant Shows Evidence of Bone Formation)
Median histology score: Bone maturity [4, 8]: 3.0
Median histology score: Osteogenic cellular activity [4, 8]: 2.6
Bone formation in preliminary experiments ([4]; rats implanted with collagen gel containing 1 or 5 μg of BMP-2, with or without peptide, data not shown): bone formation at both doses
Binding of BMP-2 by bifunctional peptide [5]: bound BMP-2

CC(C)C[C@H](NC(=O)[C@H](C)NC(=O)[C@H](CO)NC(=O)[C@H](Cc1ccccc1)NC(=O)[C@H](CO)NC(=O)[C@@H](NC(=O)[C@H](Cc1c[nH]c2ccccc12)NC(=O)[C@H](C)NC(=O)CNC(=O)[C@H](C)NC(=O)[C@H](C)NC(=O)[C@H](C)NC(=O)[C@H](CCC(=O)O)NC(=O)CNC(=O)CN)C(C)C)C(=O)N[C@@H](CCC(=O)O)C(=O)N[C@@H](CO)C(=O)O [Peptide B-7] (H-GGEAAAGAWVSFSALES-OH)
EC50 [1, 6]: 29 nM

CC(C)C[C@H](NC(=O)[C@H](CO)NC(=O)[C@H](CO)NC(=O)[C@H](Cc1ccccc1)NC(=O)[C@H](C)NC(=O)[C@H](CCC(=O)O)NC(=O)[C@H](Cc1c[nH]c2ccccc12)NC(=O)[C@H](C)NC(=O)CNC(=O)CNC(=O)CN)C(=O)N[C@@H](CO)C(=O)NCC(=O)N[C@@H](CO)C(=O)N[C@@H](CCCNC(=N)N)C(=O)N[C@H](C(=O)NCC(=O)N[C@@H](CO)C(=O)N[C@@H](CO)C(=O)NCC(=O)N[C@@H](CCCCNC(=O)CCCC[C@@H]1SC[C@@H]2NC(=O)N[C@@H]21)C(=O)O)C(C)C [Peptide B-17] (H-GGGAWEAFSSLSGSRVGSSGK(Biotin)-OH)
EC50 [2]: 17 nM
EC50 [3]: 1.3 nM
EC50 [1, 7]: 1.4 nM

CC(C)C[C@H](NC(=O)[C@H](CO)NC(=O)[C@H](CO)NC(=O)[C@H](Cc1ccccc1)NC(=O)[C@@H](NC(=O)[C@H](CCC(=O)O)NC(=O)[C@@H](N)Cc1c[nH]c2ccccc12)C(C)C)C(=O)N[C@@H](CCC(=O)O)C(=O)N[C@@H](CO)C(=O)NCC(=O)N[C@@H](CO)C(=O)N[C@H](C(=O)NCC(=O)N[C@@H](C)C(=O)NCC(=O)N[C@@H](C)C(=O)NCC(=O)O)C(C)C [Peptide B-8] (H-WEVFSSLESGSVGAGAG-OH)
EC50 [1, 6]: 5.4 nM

CC(C)C[C@H](NC(=O)[C@H](C)NC(=O)[C@H](CCC(=O)O)NC(=O)[C@H](Cc1ccccc1)NC(=O)[C@H](C)NC(=O)[C@H](CC(=O)O)NC(=O)[C@H](Cc1c[nH]c2ccccc12)NC(=O)[C@H](C)NC(=O)[C@H](CO)NC(=O)[C@H](C)NC(=O)[C@@H](NC(=O)[C@@H](NC(=O)CNC(=O)[C@H](Cc1c[nH]c2ccccc12)NC(=O)[C@@H](N)CC(=O)O)C(C)C)C(C)C)C(=O)N[C@@H](CC(=O)O)C(=O)N[C@@H](C)C(=O)O [Peptide B-11] (H-DWGVVASAWDAFEALDA-OH)
EC50 [1, 6]: 327 nM

SWWGFWNGSAAPVWSR-GSSG-AGALGFPLKGEVVEGWA-GSSGK(Biotin) [BC-2]
Binding of BMP-2 by bifunctional peptide [5]: bound BMP-2
